According to article PMC7955127, “Preclinical small molecule WEHI-7326 overcomes drug resistance and elicits response in patient-derived xenograft models of human treatment-refractory tumors” (Cell Death & Disease, 2021):

Legend:
[1] = tested on: COG-N-496x neuroblastoma PDX; test: High-risk neuroblastoma PDX COG-N-496x; type: in vivo, NSG mice; conditions: COG-N-496x PDX; 20 mg/kg i.v. twice weekly
Method: All animal studies were performed in accordance with the guidelines approved by University of New South Wales Animal Care and Ethics Committee (ACEC 17/53B) and in accordance with the requirements of the Australian Code for the Care and Use of Animals for Scientific Purposes. PDX models COG-N-440x and COG-N-496x were obtained from the Childhood Cancer Repository, Texas Tech University Health Sciences Center in Lubbock, TX, USA. 6–8 week old female NSG mice were engrafted by subcutaneous injection with 1 × 10^6 freshly thawed PDX tumor cells into one flank in a mixture of 100 μl RPMI-1640 and 100 μl Matrigel. Mice were monitored for tumor development three times weekly and tumor size measured using digital Vernier calipers. Treatments commenced when tumors reached 50 mm^3, following randomization into treatment arms. […] Mice were treated with either vincristine (0.5 mg/kg, once weekly i.p. in sterile saline for up to 5 weeks), WEHI-7326 (20 mg/kg; twice weekly i.v. in sterile saline for up to 5 weeks) or vehicle (as for WEHI-7326). For the Th-MYCN transgenic mouse model, spontaneous tumor growth in mice homozygous for the MYCN transgene was assessed by abdominal palpation at least twice a week. Treatments commenced once a small palpable tumor (~5 mm) was detected, following randomization to treatment arms. Mice were euthanized upon detection of an abdominal tumor of ~1 cm in diameter. […]

LIM 2537 = test: Cell growth inhibition assay, LIM 2537; type: cell-based; conditions: Homo sapiens; LIM 2537, colon carcinoma; 72 h viability assay, CellTiterGlo; mean of 3 ± SEM; read-out: IC50 (inhibition of cellular proliferation)
Method: (§1) Cells were plated at a density of between 500 to 5000 cells per well for adherent cell lines depending on doubling time, and 15,000 cells per well for lymphoblastic leukemia cell lines, in a 96-well plate in 200 μl of growth media. Plates were incubated overnight at 37 °C before adding the inhibitors. Inhibitors were serially diluted from the stock solutions in complete medium and added to the cells. […] Cell viability was assessed by the AlamarBlue (Invitrogen) or CellTiterBlue/Glo (Promega) method according to manufacturer’s instructions. The curve fits and IC50 values were generated in PRISM (GraphPad, San Diego, CA).

[2] = Metabolic stability in liver microsomes and cryopreserved hepatocytes; type: in vitro ADME; conditions: human, rat and mouse liver microsomes and cryopreserved hepatocytes
From the text: (§2) a Measured physicochemical and solubility data for WEHI-7326. […] Microsomal-predicted EH values are included.

H1437 = test: Cell growth inhibition assay, H1437; type: cell-based; conditions: Homo sapiens, NCI-H1437; H1437, non-small cell lung carcinoma; 72 h viability assay, CellTiterGlo; mean of 3 ± SEM; read-out: IC50 (inhibition of cellular proliferation)
Method: as §1

Plasma protein binding = type: in vitro ADME; conditions: mouse plasma
From the text: as §2

CEM = test: Cell growth inhibition assay, CEM; type: cell-based; conditions: Homo sapiens, CCRF-CEM, acute lymphoblastic leukemia, 72 h viability assay, Alamar Blue, mean of 3 ± SEM, read-out: IC50 (inhibition of cellular proliferation)
Method: (§3) Cells were plated at a density of between 500 to 5000 cells per well for adherent cell lines depending on doubling time, and 15,000 cells per well for lymphoblastic leukemia cell lines, in a 96-well plate in 200 μl of growth media. Plates were incubated overnight at 37 °C before adding the inhibitors. Inhibitors were serially diluted from the stock solutions in complete medium and added to the cells. Incubation in the presence of inhibitors was continued for […]. Cell viability was assessed by the AlamarBlue (Invitrogen) or CellTiterBlue/Glo (Promega) method according to manufacturer’s instructions. The curve fits and IC50 values were generated in PRISM (GraphPad, San Diego, CA).
Parental human lymphoblastic leukemia cells (CEM) and their drug resistant derivatives (dEpoB30 and dEpoB300) were cultured in the presence of increasing amounts of WEHI-7326, paclitaxel or epothilone B. Cell survival was determined as described in Experimental Procedures. Shown are mean of 3 experiments +/- SEM. Dose response curves were fitted in PRISM using non-linear regression (4 parameter logistic) to calculate IC50 values.

LoVo = test: Cell growth inhibition assay, LoVo; type: cell-based; conditions: Homo sapiens, colon carcinoma, 72 h viability assay, CellTiterGlo, mean of 3 ± SEM, read-out: IC50 (inhibition of cellular proliferation)
Method: as §1

SW480 = test: Cell growth inhibition assay, SW480; type: cell-based, human
Method: as §3
a Chemical structures of the triazine-based anti-mitotics used in this study. b Dose-dependent antiproliferative activity of key derivatives and comparison with commonly used anti-mitotics in SW480 cell line: Data shown is cell viability (as measured by CellTiterGlo) after 72 h relative to untreated control cells. Shown is mean of 3 independent experiments performed in duplicate +/- SEM. c Dose-dependent cell cycle analysis of key derivatives of WEHI-7326 development in SW480 cell line. Data are presented as percentage of cells in G2/M or subG0 after 24 h incubation with titration of inhibitors as assessed by PI staining and flow cytometry. Mean average of 3 experiments +/- SEM. d Comparison of IC50 and EC50 values of triazine compounds and anti-mitotic drugs in SW480 cell line: inhibition of cellular proliferation and cell cycle arrest in G2/M. IC50 and EC50 values are the mean of 3 independent experiments run in duplicates +/- SEM (n.d. = not determined). e HepG2 cytotoxic assay: cell viability assay after 48 h, normalised to 0.4% DMSO (100% viability) and 2 μM bortezomib (0% viability). The data is the mean average of 2 experiments +/- SD.

## COc1ccc(CNc2nc(NCc3ccc(CN)cc3)nc(NN3CC(=O)NC3=O)n2)cc1 [WEHI-7326]
[1]
  Median survival: 25 days
LIM 2537
  IC50: 0.0589 ± 0.0075 µM
[2]
  Rate of metabolism: low rates of metabolism
H1437
  IC50: 0.0297 ± 0.0108 µM
Plasma protein binding
  Protein binding: 61 % bound
CEM
  IC50: 0.00399 ± 4e-05 µM
LoVo
  IC50: 0.0422 ± 0.0099 µM
SW480; Homo sapiens, SW480, colon carcinoma, 72 h viability assay, CellTiterGlo, mean of 3 ± SEM, read-out: IC50 (inhibition of cellular proliferation)
  IC50: 0.0395 ± 0.0041 µM
SW480; SW480
  Potency relative to myoseverin B: almost ten-fold
SW480; SW480 colon cancer cell line in vitro
  Concentration inhibiting proliferation: at or below micromolar concentration
